For data set [1], the target named is T1, SSTR4 (Homo sapiens, UniProt P31391, F275A). Put plainly: Whole cell binding assay, SSTR4, competition with 125I-Tyr11-SST14, CHO-K1. Particulars: CHO-K1; SSTR4 mutant F275^6.51A; mean ± SEM; read-out: Span. The arrangement: expressed in transfected cells.
Description: (§1) For SSTR2 and SSTR4, CHO-K1 cells were cultured in F12 medium with 10% FBS and seeded at a density of 30,000 cells/well in Isoplate-96 plates (PerkinElmer). Twenty-four hours after transfection with the WT or mutant SSTR2/SSTR4, CHO-K1 cells were washed twice and incubated with blocking buffer (F12 supplemented with 25 mM HEPES and 0.1% (w/v) BSA, pH 7.4) for 2 h at 37 °C. […] Following incubation, cells were washed three times with ice-cold PBS and lysed by 50 μL lysis buffer (PBS supplemented with 20 mM Tris-HCl, 1% Triton X-100, pH 7.4). The radioactivity was subsequently counted (counts/min, CPM) in a scintillation counter (MicroBeta[2] Plate Counter, PerkinElmer) using a scintillation cocktail (OptiPhaseSuperMix, PerkinElmer). Data were analyzed by nonlinear regression using GraphPad PRISM 8.
(§2) aMutants represent that all mutations were introduced separately into the WT receptors
and expressed in CHO K1 cells.
(§3) bThe IC50 ratio was shown as IC50(mutant)/IC50(WT), indicating the shift between the WT
(§4) and mutant curves, reflecting the effect of the mutations on ligand binding.
(§5) cData are shown as mean ± S.E.M. form at least three independent experiments
(§6) performed in technical triplicate. One-way ANOVA was performed followed by
(§7) Dunnett’s post-test and compared with WT.
(§8) d The span is defined as the window between the maximal agonists response (Emax) and
(§9) e Sample size; the number of independent experiments performed in technical triplicate.
The target in data set [2] is T2, SSTR4 (Homo sapiens, UniProt P31391, M130A). Described as above. Also on record: expressed in transfected cells. To be noted: CHO-K1; SSTR4 mutant M130^3.36A; mean ± SEM; read-out: Span.
T2 sequence (P31391 whole entry M130A): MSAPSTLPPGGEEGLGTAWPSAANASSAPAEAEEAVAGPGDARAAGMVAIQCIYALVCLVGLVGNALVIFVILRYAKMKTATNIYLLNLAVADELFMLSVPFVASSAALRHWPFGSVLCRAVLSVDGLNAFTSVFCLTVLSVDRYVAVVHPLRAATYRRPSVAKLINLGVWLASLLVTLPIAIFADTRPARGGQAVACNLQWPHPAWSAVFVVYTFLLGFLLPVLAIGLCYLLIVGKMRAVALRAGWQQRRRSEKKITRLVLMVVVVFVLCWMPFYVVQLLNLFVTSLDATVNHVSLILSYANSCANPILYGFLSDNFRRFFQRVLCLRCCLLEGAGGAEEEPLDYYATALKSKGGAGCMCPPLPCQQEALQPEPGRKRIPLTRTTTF
Description: as §1, §2
and expressed in CHO K1 cells.
as §3, §4, §5, §6, §7, §8, §9
Data set [3] deals with T3, SSTR4 (Homo sapiens, UniProt P31391, T215A). The data set is described as above. To be noted: SSTR4 mutant T215^5.42A, mean ± SEM. The arrangement: expressed in transfected cells.
T3 sequence (P31391 whole entry T215A): as the sequence (P31391 whole entry M130A) above, with A130M, T215A counted along it
Description: as §1, §2
and expressed in CHO K1 cells.
as §3, §4, §5, §6, §7, §8, §9
Data set [4] has as its target SSTR4 (Homo sapiens, UniProt P31391, D126A). The description is as above. The arrangement: expressed in transfected cells. Particulars: CHO-K1; SSTR4 mutant D126^3.32A; mean ± SEM; read-out: Span.
Description: as §1, §2
and expressed in CHO K1 cells.
as §3, §4, §5, §6, §7, §8, §9
Data set [5] concerns the target SSTR4 (Homo sapiens, UniProt P31391, Y301A). Described as above. The arrangement: expressed in transfected cells. Particulars: CHO-K1; SSTR4 mutant Y301^7.43A; mean ± SEM; read-out: Span.
Description: as §1, §2
and expressed in CHO K1 cells.
as §3, §4, §5, §6, §7, §8, §9
Data set [6] concerns the target T4, SSTR4 (Homo sapiens, UniProt P31391, N199A). The data set is described as above. Also on record: expressed in transfected cells. To be noted: CHO-K1; SSTR4 mutant N199^ECL2A; mean ± SEM; read-out: Span.
Description: as §1, §2
and expressed in CHO K1 cells.
as §3, §4, §5, §6, §7, §8, §9
The target of data set [7] is T5, SSTR4 (Homo sapiens, UniProt P31391, Q279A). The description is as above. The arrangement: expressed in transfected cells. Particulars: SSTR4 mutant Q279^6.55A, mean ± SEM.
T5 sequence (P31391 whole entry Q279A): as the sequence (P31391 whole entry M130A) above, with A130M, Q279A counted along it
Description: as §1, §2
and expressed in CHO K1 cells.
as §3, §4, §5, §6, §7, §8, §9
Data set [8] concerns the target T6, SSTR4 (Homo sapiens, UniProt P31391). The description is as above. The arrangement: expressed in transfected cells. Particulars: WT SSTR4, mean ± SEM.
Description: as §1, §2
and expressed in CHO K1 cells.
as §3, §4, §5, §6, §7, §8, §9
Data set [9] deals with SSTR4 (Homo sapiens, UniProt P31391, S208A). Described as above. Particulars: SSTR4 mutant S208^5.35A, mean ± SEM.
Sequence of SSTR4 (Homo sapiens, UniProt P31391, S208A) (P31391 whole entry S208A): as the sequence (P31391 whole entry M130A) above, with A130M, S208A counted along it
Description: as §1, §2
and expressed in CHO K1 cells.
as §3, §4, §5, §6, §7, §8, §9
In data set [10] the target is T7, SSTR4 (Homo sapiens, UniProt P31391, N293A).
T7 construct: expressed in transfected cells; host or cells: HEK293F
T7 sequence (P31391 whole entry N293A): as the sequence (P31391 whole entry M130A) above, with A130M, N293A counted along it
The description is as above. To be noted: SSTR4 mutant N293^7.35A, mean ± SEM.
Description: as §1, §2
and expressed in CHO K1 cells.
as §3, §4, §5, §6, §7, §8, §9

In data set [11] the target is SSTR4 (Homo sapiens, UniProt P31391, R110A). Put plainly: cAMP accumulation assay (agonist-induced inhibition of forskolin-stimulated cAMP), SSTR4, HEK293F.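 Note: transiently transfected cells incubated 40 min at room temperature with 4 µM forskolin and graded ligand, cAMP read by LANCE Ultra TR-FRET kit, values normalized to WT receptor per ligand.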 To be noted: SSTR4 mutant R110^ECL1A, mean ± SEM. Format: cell-based.
Sequence of SSTR4 (Homo sapiens, UniProt P31391, R110A) (P31391 whole entry R110A): as the sequence (P31391 whole entry M130A) above, with R110A, A130M counted along it
Description: (§10) HEK293F cells were transiently transfected with WT or mutant SSTR2/SSTR4 using transfection reagent (PEI MAX 2000, Polysciences) and incubated at 37 °C in 5% CO2. Forty-eight hours after transfection, cells were centrifuged and resuspended in stimulation buffer (Hanks’ balanced salt solution (HBSS) supplemented with 5 mM HEPES, 0.5 mM IBMX and 0.1% (w/v) bovine serum albumin (BSA), pH 7.4) to a density of 200,000 cells/mL and added to 384-well white plates (PerkinElmer, 1000 cells/well). cAMP accumulation was measured by a LANCE Ultra cAMP kit (PerkinElmer) according to the manufacturer’s instructions. In brief, transfected cells were incubated for 40 min in stimulation buffer with 2.5 μL forskolin (SSTR2: 2 μM; SSTR4: 4 μM) and gradient concentration of ligand at RT. The reactions were stopped by addition of lysis buffer containing 5 μL Eu-cAMP tracer and 5 μL ULight-anti-cAMP. Plates were then incubated for 60 min at RT and time-resolved FRET signals were measured at 620 nm and 665 nm by an EnVision multilabel plate reader (PerkinElmer). Data were analyzed in GraphPad PRISM 8 and all values were normalized to the WT for each ligand. All outcomes were repeated at least three times.
(§11) aMutants represent that mutations were introduced separately into the WT receptors and
(§12) transiently expressed in HEK 293F cells.
(§13) bThe EC50 ratio was shown as EC50(mutant)/EC50(WT), indicating the shift between the WT
(§14) and mutant curves, reflecting the effect of the mutations on receptor signaling.
(§15) cData are shown as mean ± S.E.M. from at least three independent experiments
as §6
(§16) Dunnett’s post-test and compared with WT. The P value was defined as: *P<0.05;
as §8, §9
(§17) f Receptor expression level of HEK 293F cells was determined independently by flow
(§18) cytometry with anti-FLAG antibody and shown as per cent compared to the WT.
The target of data set [12] is SSTR4 (Homo sapiens, UniProt P31391, N293F). The description is as above. Format: cell-based. Particulars: HEK293F; SSTR4 mutant N293^7.35F; mean ± SEM; read-out: Span.
Sequence of SSTR4 (Homo sapiens, UniProt P31391, N293F) (P31391 whole entry N293F): as the sequence (P31391 whole entry M130A) above, with A130M, N293F counted along it
Description: as §10, §11, §12, §13, §14, §15, §6, §16, §8, §9, §17, §18
The target of data set [13] is SSTR4 (Homo sapiens, UniProt P31391, S208W). The description is as above. To be noted: SSTR4 mutant S208^5.35W, mean ± SEM. It is filed as cell-based.
Sequence of SSTR4 (Homo sapiens, UniProt P31391, S208W) (P31391 whole entry S208W): as the sequence (P31391 whole entry M130A) above, with A130M, S208W counted along it
Description: as §10, §11, §12, §13, §14, §15, §6, §16, §8, §9, §17, §18
Data set [14] addresses T8, SSTR4 (Homo sapiens, UniProt P31391, F211A).
T8 construct: expressed in transfected cells; host or cells: HEK293F
The description is as above. Format: cell-based. Particulars: SSTR4 mutant F211^5.38A, mean ± SEM.
Description: as §10, §11, §12, §13, §14, §15, §6, §16, §8, §9, §17, §18

The target in data set [15] is T9, SSTR4 (Homo sapiens, UniProt P31391, N282A).
T9 construct: expressed in transfected cells; host or cells: HEK293F
T9 sequence (P31391 whole entry N282A): as the sequence (P31391 whole entry M130A) above, with A130M, N282A counted along it
Described as above. It is filed as cell-based. To be noted: SSTR4 mutant N282^6.58A, mean ± SEM.
Description: as §10, §11, §12, §13, §14, §15, §6, §16, §8, §9, §17, §18

Data set [16] has as its target T7, SSTR4. Described as above. Format: cell-based. To be noted: SSTR4 mutant N293^7.35A, mean ± SEM.
Description: as §10, §11, §12, §13, §14, §15, §6, §16, §8, §9, §17, §18
Data set [17] addresses T10, SSTR4 (Homo sapiens, UniProt P31391, L297A).
T10 construct: expressed in transfected cells; host or cells: HEK293F
The description is as above. It is filed as cell-based. Particulars: SSTR4 mutant L297^7.39A, mean ± SEM.
Description: as §10, §11, §12, §13, §14, §15, §6, §16, §8, §9, §17, §18

Data set [18] has as its target T1, SSTR4. The description is as above. It is filed as cell-based. The arrangement: expressed in transfected cells; host or cells: HEK293F. To be noted: SSTR4 mutant F275^6.51A, mean ± SEM.
Description: as §10, §11, §12, §13, §14, §15, §6, §16, §8, §9, §17, §18
Data set [19] has as its target T2, SSTR4. The data set is described as above. Format: cell-based. Also on record: expressed in transfected cells; host or cells: HEK293F. Particulars: SSTR4 mutant M130^3.36A, mean ± SEM.
Description: as §10, §11, §12, §13, §14, §15, §6, §16, §8, §9, §17, §18
Data set [20] addresses T3, SSTR4. The description is as above. It is filed as cell-based. Also on record: expressed in transfected cells; host or cells: HEK293F. To be noted: SSTR4 mutant T215^5.42A, mean ± SEM.
Description: as §10, §11, §12, §13, §14, §15, §6, §16, §8, §9, §17, §18
The target of data set [21] is T4, SSTR4. The data set is described as above. Format: cell-based. Also on record: expressed in transfected cells; host or cells: HEK293F. Particulars: SSTR4 mutant N199^ECL2A, mean ± SEM.
Description: as §10, §11, §12, §13, §14, §15, §6, §16, §8, §9, §17, §18
Data set [22] has as its target T5, SSTR4. Described as above. Particulars: SSTR4 mutant Q279^6.55A, mean ± SEM. Format: cell-based. The arrangement: expressed in transfected cells; host or cells: HEK293F.
Description: as §10, §11, §12, §13, §14, §15, §6, §16, §8, §9, §17, §18
Data set [23] deals with T6, SSTR4. The description is as above. To be noted: HEK293F, WT SSTR4, mean ± SEM. The arrangement: expressed in transfected cells; host or cells: HEK293F. Format: cell-based.
Description: as §10, §11, §12, §13, §14, §15, §6, §16, §8, §9, §17, §18
For a further data set, the system named is SSTR1–5. Particulars: cited from earlier work. From the text: Somatostatin (SST), an inhibitory hormone that distributes widely in both human central nervous system and periphery tissues negatively regulates multiple hormone releases (growth hormone, glucagon, insulin, gastrin and cholecystokinin) and cell proliferation through SST receptors (SSTRs).[1]–[4] There are five types of SSTRs, namely SSTR1–SSTR5, which are divided into two subfamilies: SRIF1 (SSTR2, SSTR3, SSTR5) and SRIF2 (SSTR1, SSTR4) based on phylogenetic, sequence homology and ligand binding profiles.[5] Two bioactive SST peptides, SST-14 and its N-terminally extended form SST-28, have be ...

For data set [24] the following is noted: cited from earlier work. From the text:
Along with increased knowledge of the pharmacological effects of these receptors, medical application of SST and its analogs has expanded. A considerable amount of effort has been made to develop new therapeutics for oncology of SSTRs. […] It was found recently that radiolabeled SSTR antagonists produced superi ...

[25] abbreviates: at least three independent experiments.

Positions of bridges follow the written chain, without caps; N, C: chain ends. Residues, ends and D or L forms follow the SMILES beside them.

T4 sequence (P31391 whole entry N199A): as the sequence (P31391 whole entry M130A) above, with A130M, N199A counted along it
T6 sequence (P31391 whole entry): as the sequence (P31391 whole entry M130A) above, with A130M counted along it
T1 sequence (P31391 whole entry F275A): as the sequence (P31391 whole entry M130A) above, with A130M, F275A counted along it
T8 sequence (P31391 whole entry F211A): as the sequence (P31391 whole entry M130A) above, with A130M, F211A counted along it
T10 sequence (P31391 whole entry L297A): as the sequence (P31391 whole entry M130A) above, with A130M, L297A counted along it
Sequence of SSTR4 (Homo sapiens, UniProt P31391, D126A) (P31391 whole entry D126A): as the sequence (P31391 whole entry M130A) above, with D126A, A130M counted along it
Sequence of SSTR4 (Homo sapiens, UniProt P31391, Y301A) (P31391 whole entry Y301A): as the sequence (P31391 whole entry M130A) above, with A130M, Y301A counted along it

For orientation: IC50 means the midpoint of a concentration-inhibition curve. Lower therefore signals inhibition by little substance. In general, EC50 refers to the concentration at which the effect is half-maximal. The low end stands for higher potency in that assay, the high end for lower potency in that assay. In the case of `C[C@@H]1NC(=O)[C@H](Cc2ccccc2)NC(=O)[C@@H](N)CSSC[C@@H](C(=O)O)NC(=O)[C@H](Cc2ccccc2)NC(=O)[C@H]([C@@H](C)O)NC(=O)[C@H](CCCCN)NC(=O)[C@H](Cc2c[nH]c3ccccc23)NC1=O` [Peptide3] (H-CFAWKTFC-OH; disulfide 1-8), the Emax was 23 ± 5% on SSTR4 [1]; 26 ± 5% on SSTR4 [2]; 96 ± 15% at SSTR4 [3] (CHO-K1, read-out: Span); 23 ± 8% on SSTR4 [4]; 30 ± 16% at SSTR4 [5]; 26 ± 7% on SSTR4 [6]. Besides, the Emax on SSTR4 [7] (CHO-K1, read-out: Span) came out at 45 ± 12%; on SSTR4 [8] (CHO-K1, read-out: Span), 100 ± 7%; on SSTR4 [9] (CHO-K1, read-out: Span), 152 ± 11%; at SSTR4 [10] (CHO-K1, read-out: Span) it was 132 ± 12%; at SSTR4 [11] (HEK293F, read-out: Span), 100 ± 6%; on SSTR4 [12] it was 16 ± 7%. Also, the Emax was 58 ± 6% on SSTR4 [13] (HEK293F, read-out: Span); 65 ± 5% at SSTR4 [14] (HEK293F, read-out: Span); 48 ± 2% on SSTR4 [15] (HEK293F, read-out: Span); 106 ± 7% on SSTR4 [16] (HEK293F, read-out: Span); 99 ± 8% on SSTR4 [17] (HEK293F, read-out: Span); 20 ± 5% at SSTR4 [18] (HEK293F, read-out: Span). In addition, the Emax at SSTR4 [19] (HEK293F, read-out: Span) worked out at 72 ± 4%; at SSTR4 [20] (HEK293F, read-out: Span), 79 ± 6%; on SSTR4 [21] (HEK293F, read-out: Span), 93 ± 6%; at SSTR4 [22] (HEK293F, read-out: Span), 77 ± 5%; at SSTR4 [23] (window between Emax and vehicle, read-out: Span), 100 ± 3%. For the same molecule, the concentration for half-maximal inhibition (IC50) on SSTR4 [3] is 0.0676 nM; at SSTR4 [7], 1.35 nM; on SSTR4 [8] (setting [25]), 3.8 nM; on SSTR4 [9], 0.0708 nM; on SSTR4 [10], 1.29 nM. The EC50 is 1.91 nM at SSTR4 [11]; 1.12 nM at SSTR4 [13]; 145 nM on SSTR4 [14]; 2.34 nM at SSTR4 [15]; 3.47 nM on SSTR4 [16]; 102 nM at SSTR4 [17]. Besides, the EC50 was 676 nM on SSTR4 [18]; 97.7 nM at SSTR4 [19]; 0.479 nM on SSTR4 [20]; 15.1 nM on SSTR4 [21]; 5.01 nM on SSTR4 [22]; 1.26 nM at SSTR4 [23] (setting [25]).

As to “SST-28: N-terminally extended form of bioactive SST peptide”, the “affinity for SSTR1–5” value with SSTR1–5 is “high and equal affinity for SSTR1–5”.

With “SST: Somatostatin, an inhibitory hormone”, the half-life result in [24] is listed as “less than 3 min”.

These data come from publication PMC9343605, “Structural insights into ligand recognition and selectivity of somatostatin receptors” (Cell Research, 2022).
